Test results as given in patent publication US20120121679A1, “VIRICIDAL AND MICROBICIDAL COMPOSITIONS AND USES THEREOF” (University of Georgia Research Foundation, Inc., priority 2009, published 2012).
Like-named read-outs stand apart in the source and are kept apart here.

Legend:
yeast species = assay: Effect of levulinic acids plus SDS at 21° C. on various yeast species
Murine norovirus (MNV-1) = assay: Inactivation of MNV-1 by levulinic acid plus SDS in solution, plaque assay; conditions: 21° C., 1 min
Feline Calicivirus (FCV) = assay: Inactivation of FCV by levulinic acid plus SDS in solution, plaque assay; conditions: 21° C., 1 min
[1] = test system: spores of Bacillus anthracis Sterne (34F2); assay type: cell-based
L. monocytogenes = assay type: cell-based, Listeria monocytogenes; conditions: 21° C.
S. enteritidis = assay: Reduction of S. enteritidis in water treated with organic acids and SDS; assay type: cell-based, Salmonella enteritidis; conditions: for S. enteritidis counts: water, 21° C.
[2] = Candida magnoliae, inoculum […] 10^8 CFU/ml
[3] = Debaryomyces hansenii, inoculum […] 10^7 CFU/ml
[4] = Geotrichum candidum, inoculum […] 10^7 CFU/ml
[5] = Saccharomyces cerevisiae, inoculum […] 10^7 CFU/ml
[6] = Zygosaccharomyces bailii, inoculum […] 10^7 CFU/ml
[7] = Experiment A4 absent heat, RT, 0 min
[8] = Experiment A4 absent heat, RT, 1 h
[9] = Experiment A4 absent heat, RT, 2 h
[10] = Experiment A4 absent heat, RT, 3 h
[11] = Experiment A4 absent heat, RT, 4 h
[12] = Experiment A4 with heat, 65° C., 0 min
[13] = Experiment A4 with heat, 65° C., 1 h
[14] = Experiment A4 with heat, 65° C., 2 h
[15] = Experiment A4 with heat, 65° C., 3 h
[16] = Experiment A4 with heat, 65° C., 4 h
[17] = Experiment A5 absent heat, RT, 0 min
[18] = Experiment A5 absent heat, RT, 1 h
[19] = Experiment A5 absent heat, RT, 2 h
[20] = Experiment A5 absent heat, RT, 3 h
[21] = Experiment A5 absent heat, RT, 4 h
[22] = Experiment A5 with heat, 65° C., 0 min
[23] = Experiment A5 with heat, 65° C., 1 h
[24] = Experiment A5 with heat, 65° C., 2 h
[25] = Experiment A5 with heat, 65° C., 3 h
[26] = Experiment A5 with heat, 65° C., 4 h

CCCCCCCCCCCCOS(=O)(=O)[O-].[Na+] [1.0% SDS]
Yeast counts at 2 min (yeast species; [2]): 3.3 log CFU/ml
Yeast counts at 5 min (yeast species; [2]): 3.2 log CFU/ml
Yeast counts at 20 min (yeast species; [2]): 2.7 log CFU/ml
Yeast counts at 30 min (yeast species; [2]): 3.0 log CFU/ml
Yeast counts at 60 min (yeast species; [2]): 3.1 log CFU/ml
Yeast counts at 2 min (yeast species; [3]): 4.1 log CFU/ml
Yeast counts at 5 min (yeast species; [3]): 4.5 log CFU/ml
Yeast counts at 20 min (yeast species; [3]): 4.5 log CFU/ml
Yeast counts at 30 min (yeast species; [3]): 4.5 log CFU/ml
Yeast counts at 60 min (yeast species; [3]): 4.4 log CFU/ml
Yeast counts at 2 min (yeast species; [4]): 3.3 log CFU/ml
Yeast counts at 5 min (yeast species; [4]): 3.5 log CFU/ml
Yeast counts at 20 min (yeast species; [4]): 3.5 log CFU/ml
Yeast counts at 30 min (yeast species; [4]): 3.4 log CFU/ml
Yeast counts at 60 min (yeast species; [4]): 3.3 log CFU/ml
Yeast counts at 2 min (yeast species; [5]): 2.6 log CFU/ml
Yeast counts at 5 min (yeast species; [5]): 2.3 log CFU/ml
Yeast counts at 20 min (yeast species; [5]): 2.7 log CFU/ml
Yeast counts at 30 min (yeast species; [5]): 2.3 log CFU/ml
Yeast counts at 60 min (yeast species; [5]): 2.4 log CFU/ml
Yeast counts at 2 min (yeast species; [6]): 4.6 log CFU/ml
Yeast counts at 5 min (yeast species; [6]): 4.6 log CFU/ml
Yeast counts at 20 min (yeast species; [6]): 4.5 log CFU/ml
Yeast counts at 30 min (yeast species; [6]): 4.5 log CFU/ml
Yeast counts at 60 min (yeast species; [6]): 4.4 log CFU/ml

CC(=O)CCC(=O)O [2.0% levulinic acid, levulinic acid]
Yeast counts at 2 min (yeast species; [3]): 4.9 log CFU/ml
Yeast counts at 5 min (yeast species; [3]): 4.6 log CFU/ml
Yeast counts at 20 min (yeast species; [3]): 4.7 log CFU/ml
Yeast counts at 30 min (yeast species; [3]): 3.0 log CFU/ml
Yeast counts at 60 min (yeast species; [3]): 1.3 log CFU/ml
Yeast counts at 2 min (yeast species; [4]): 4.4 log CFU/ml
Yeast counts at 5 min (yeast species; [4]): 4.3 log CFU/ml
Yeast counts at 20 min (yeast species; [4]): 3.8 log CFU/ml
Yeast counts at 30 min (yeast species; [4]): 3.4 log CFU/ml
Yeast counts at 60 min (yeast species; [4]): 2.0 log CFU/ml
Yeast counts at 2 min (yeast species; [5]): 5.5 log CFU/ml
Yeast counts at 5 min (yeast species; [5]): 5.4 log CFU/ml
Yeast counts at 20 min (yeast species; [5]): 5.3 log CFU/ml
Yeast counts at 30 min (yeast species; [5]): 5.5 log CFU/ml
Yeast counts at 60 min (yeast species; [5]): 5.0 log CFU/ml
Yeast counts at 2 min (yeast species; [6]): 5.5 log CFU/ml
Yeast counts at 5 min (yeast species; [6]): 5.4 log CFU/ml
Yeast counts at 20 min (yeast species; [6]): 5.4 log CFU/ml
Yeast counts at 30 min (yeast species; [6]): 5.4 log CFU/ml
Yeast counts at 60 min (yeast species; [6]): 5.3 log CFU/ml
Log Reduction PFU/ml (standard deviation), MNV-1 (Murine norovirus (MNV-1); listed as 2% Levulinic acid): −0.06 (±0.17) log PFU/ml
Log Reduction PFU/ml (standard deviation), FCV (Feline Calicivirus (FCV); listed as 2% Levulinic acid): 0.51 (±0.34) log PFU/ml

CCCCCCCCCCCCOS(=O)(=O)[O-].[Na+] [2% SDS, sodium dodecyl sulfate]
Log Reduction PFU/ml (standard deviation), MNV-1 (Murine norovirus (MNV-1); sulfate): −0.23 (±0.59) log PFU/ml
Log Reduction PFU/ml (standard deviation), FCV (Feline Calicivirus (FCV); sulfate): −0.05 (±0.22) log PFU/ml
Recovery levels over time ([1]; Experiment A3): did not decrease
CFU/ml % recovery (as compared to control flask F) ([1]; Experiment A3, 0 min): 119%
CFU/ml % recovery (as compared to control flask F) ([1]; Experiment A3, 10 min): 65%
CFU/ml % recovery (as compared to control flask F) ([1]; Experiment A3, 45 min): 94%
CFU/ml % recovery (as compared to control flask F) ([1]; Experiment A3, 90 min): 144%
CFU/ml % recovery (as compared to control flask F) ([1]; Experiment A3, 180 min): 95%
CFU/ml % recovery (as compared to control flask F) [1, 7]: 85%
CFU/ml % recovery (as compared to control flask F) [1, 8]: 90%
CFU/ml % recovery (as compared to control flask F) [1, 9]: 87%
CFU/ml % recovery (as compared to control flask F) [1, 10]: 98%
CFU/ml % recovery (as compared to control flask F) [1, 11]: 79%
CFU/ml % recovery (as compared to control flask F) [1, 12]: 48%
CFU/ml % recovery (as compared to control flask F) [1, 13]: 53%
CFU/ml % recovery (as compared to control flask F) [1, 14]: 74%
CFU/ml % recovery (as compared to control flask F) [1, 15]: 68%
CFU/ml % recovery (as compared to control flask F) [1, 16]: 114%
CFU/ml % recovery (as compared to control flask F) [1, 17]: 122%
CFU/ml % recovery (as compared to control flask F) [1, 18]: 117%
CFU/ml % recovery (as compared to control flask F) [1, 19]: 103%
CFU/ml % recovery (as compared to control flask F) [1, 20]: 113%
CFU/ml % recovery (as compared to control flask F) [1, 21]: 103%
CFU/ml % recovery (as compared to control flask F) [1, 22]: 71%
CFU/ml % recovery (as compared to control flask F) [1, 23]: 69%
CFU/ml % recovery (as compared to control flask F) [1, 24]: 53%
CFU/ml % recovery (as compared to control flask F) [1, 25]: 71%
CFU/ml % recovery (as compared to control flask F) [1, 26]: 54%
effectiveness compared with water control F ([1]; Experiments A4, A5): not more effective than the water control F

CCCCCCCCCCCCOS(=O)(=O)[O-].[Na+] [0.05% SDS, sodium dodecyl sulfate]
Log Reduction PFU/ml (standard deviation), MNV-1 (Murine norovirus (MNV-1); sulfate): −0.13 (±0.26) log PFU/ml
L. monocytogenes counts (L. monocytogenes; 0 min): 6.6 ± 0.3 log CFU/ml
L. monocytogenes counts (L. monocytogenes; 2 min): 6.4 ± 0.1 log CFU/ml
L. monocytogenes counts (L. monocytogenes; 5 min): 6.0 ± 0.1 log CFU/ml
L. monocytogenes counts (L. monocytogenes; 10 min): 5.0 ± 0.3 log CFU/ml
L. monocytogenes counts (L. monocytogenes; 20 min): 3.8 ± 0.2 log CFU/ml
L. monocytogenes counts (L. monocytogenes; 30 min): 3.3 ± 0.1 log CFU/ml
S. enteritidis counts (S. enteritidis; 0 min): 7.1 log CFU/ml
S. enteritidis counts (S. enteritidis; 2 min): 7.0 log CFU/ml
S. enteritidis counts (S. enteritidis; 5 min): 7.2 log CFU/ml
S. enteritidis counts (S. enteritidis; 10 min): 7.1 log CFU/ml
S. enteritidis counts (S. enteritidis; 20 min): 7.2 log CFU/ml
S. enteritidis counts (S. enteritidis; 30 min): 7.1 log CFU/ml
Salmonella reduction in water (S. enteritidis; within 30 minutes): did not reduce Salmonella cell numbers
Log Reduction PFU/ml (standard deviation), FCV (Feline Calicivirus (FCV); sulfate): −0.12 (±0.23) log PFU/ml

CC(=O)CCC(=O)O [2.0% levulinic acids]
Yeast counts at 2 min (yeast species; [2]): 5.9 log CFU/ml
Yeast counts at 5 min (yeast species; [2]): 5.9 log CFU/ml
Yeast counts at 20 min (yeast species; [2]): 6.0 log CFU/ml
Yeast counts at 30 min (yeast species; [2]): 5.9 log CFU/ml
Yeast counts at 60 min (yeast species; [2]): 5.8 log CFU/ml

CCCCCCCCCCCCOS(=O)(=O)[O-].[Na+] [0.5% SDS, sodium dodecyl sulfate]
Log Reduction PFU/ml (standard deviation), MNV-1 (Murine norovirus (MNV-1); sulfate): 0.13 (±0.20) log PFU/ml
Log Reduction PFU/ml (standard deviation), FCV (Feline Calicivirus (FCV); sulfate): −0.09 (±0.27) log PFU/ml

CC(=O)CCC(=O)O [0.5% levulinic acid, levulinic acid]
Log Reduction PFU/ml (standard deviation), MNV-1 (Murine norovirus (MNV-1)): 0.09 (±0.38) log PFU/ml
Log Reduction PFU/ml (standard deviation), FCV (Feline Calicivirus (FCV)): 0.09 (±0.16) log PFU/ml

CC(=O)CCC(=O)O [1.0% levulinic acid, levulinic acid]
Log Reduction PFU/ml (standard deviation), MNV-1 (Murine norovirus (MNV-1); listed as 1% Levulinic acid): −0.04 (±0.23) log PFU/ml
Salmonella reduction in water (S. enteritidis; within 30 minutes, listed as 1% by weight levulinic acid): ≤ 1 log CFU/ml
Log Reduction PFU/ml (standard deviation), FCV (Feline Calicivirus (FCV); listed as 1% Levulinic acid): 0.32 (±0.19) log PFU/ml

CC(=O)CCC(=O)O [3.0% levulinic acid, levulinic acid]
Log Reduction PFU/ml (standard deviation), MNV-1 (Murine norovirus (MNV-1); listed as 3% Levulinic acid): −0.09 (±0.10) log PFU/ml
Salmonella reduction in water (S. enteritidis; within 30 minutes): 3.4 log CFU/ml
Salmonella reduction in water (S. enteritidis; within 30 minutes, listed as 3% levulinic acid): about 3.4 log CFU/ml
Log Reduction PFU/ml (standard deviation), FCV (Feline Calicivirus (FCV); listed as 3% Levulinic acid): 0.43 (±0.23) log PFU/ml
CFU/ml % recovery (as compared to control flask F) ([1]; Experiment A3, 0 min): 108%
CFU/ml % recovery (as compared to control flask F) ([1]; Experiment A3, 10 min): 81%
CFU/ml % recovery (as compared to control flask F) ([1]; Experiment A3, 45 min): 55%
CFU/ml % recovery (as compared to control flask F) ([1]; Experiment A3, 90 min): 64%
CFU/ml % recovery (as compared to control flask F) [1, 7]: 89%
CFU/ml % recovery (as compared to control flask F) [1, 8]: 54%
CFU/ml % recovery (as compared to control flask F) [1, 9]: 27%
CFU/ml % recovery (as compared to control flask F) [1, 10]: 30%
CFU/ml % recovery (as compared to control flask F) [1, 11]: 15%
CFU/ml % recovery (as compared to control flask F) [1, 12]: 70%
CFU/ml % recovery (as compared to control flask F) [1, 13]: 78%
CFU/ml % recovery (as compared to control flask F) [1, 14]: 45%
CFU/ml % recovery (as compared to control flask F) [1, 15]: 33%
CFU/ml % recovery (as compared to control flask F) [1, 16]: 46%
CFU/ml % recovery (as compared to control flask F) [1, 17]: 105%
CFU/ml % recovery (as compared to control flask F) [1, 18]: 80%
CFU/ml % recovery (as compared to control flask F) [1, 19]: 46%
CFU/ml % recovery (as compared to control flask F) [1, 20]: 67%
CFU/ml % recovery (as compared to control flask F) [1, 21]: 37%
CFU/ml % recovery (as compared to control flask F) [1, 22]: 75%
CFU/ml % recovery (as compared to control flask F) [1, 23]: 58%
CFU/ml % recovery (as compared to control flask F) [1, 24]: 34%
CFU/ml % recovery (as compared to control flask F) [1, 25]: 34%
CFU/ml % recovery (as compared to control flask F) [1, 26]: 14%

CCCCCCCCCCCCOS(=O)(=O)[O-].[Na+] [1% SDS, sodium dodecyl sulfate]
Log Reduction PFU/ml (standard deviation), MNV-1 (Murine norovirus (MNV-1); sulfate): 0.03 (±0.12) log PFU/ml
Log Reduction PFU/ml (standard deviation), FCV (Feline Calicivirus (FCV); sulfate): −0.05 (±0.18) log PFU/ml

CC(=O)O [0.5% acetic acid, acetic acid]
Salmonella reduction in water (S. enteritidis): 0.7 log CFU/ml
